Experimental data: PMC4823954, “From fighting depression to conquering tumors: a novel tricyclic thiazepine compound as a tubulin polymerization inhibitor” (Cell Death & Disease, 2016)

Experiments:
Assay in all cases: KINOMEscan
Assay type in all cases: binding
Settings in all cases: read-out: % Ctrl
SgK110 = biological target: T1, SgK110 (Homo sapiens, UniProt P0C264)
T1 construct: purchased DiscoveRx KINOMEscan
Method in brief: (§1)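 Competition binding panel of 442 non-mutant kinases: test compound at 5 and 10 μM competed with an active-site-directed ligand for 1 h with shaking. Bound kinase was eluted with 0.5 μM ligand and quantified by qPCR; %Ctrl = (compound − positive control)/(DMSO − positive control) × 100, lower meaning tighter binding.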

PHKG1 = biological target: T2, PHKG1 (Homo sapiens, UniProt Q16816)
T2 construct: purchased DiscoveRx KINOMEscan
Method in brief: as §1

DCAMKL3 = biological target: T3, DCAMKL3 (Homo sapiens, UniProt Q9C098)
T3 construct: purchased DiscoveRx KINOMEscan
Method in brief: as §1

PRKD2 = biological target: T4, PRKD2 (Homo sapiens, UniProt Q9BZL6)
T4 construct: purchased DiscoveRx KINOMEscan
Method in brief: as §1

PLK1 = biological target: T5, PLK1 (Homo sapiens, UniProt P53350)
T5 construct: purchased DiscoveRx KINOMEscan
Method in brief: as §1

NEK2 = biological target: T6, NEK2 (Homo sapiens, UniProt P51955)
T6 construct: purchased DiscoveRx KINOMEscan
Method in brief: as §1

NEK4 = biological target: T7, NEK4 (Homo sapiens, UniProt P51957)
T7 construct: purchased DiscoveRx KINOMEscan
Method in brief: as §1

ERK1 = biological target: T8, ERK1 (Homo sapiens, UniProt P27361)
T8 construct: purchased DiscoveRx KINOMEscan
Method in brief: as §1

[1] = biological target: T9, ABL1(T315I)-phosphorylated (Homo sapiens, UniProt P00519, T315I)
T9 construct: purchased DiscoveRx KINOMEscan

MAST1 = biological target: T10, MAST1 (Homo sapiens, UniProt Q9Y2H9)
T10 construct: purchased DiscoveRx KINOMEscan
Method in brief: as §1

CAMKK2 = biological target: T11, CAMKK2 (Homo sapiens, UniProt Q96RR4)
T11 construct: purchased DiscoveRx KINOMEscan
Method in brief: as §1

TLK2 = biological target: T12, TLK2 (Homo sapiens, UniProt Q86UE8)
T12 construct: purchased DiscoveRx KINOMEscan
Method in brief: as §1

TNNI3K = biological target: T13, TNNI3K (Homo sapiens, UniProt Q59H18)
T13 construct: purchased DiscoveRx KINOMEscan
Method in brief: as §1

CAMK2G = biological target: T14, CAMK2G (Homo sapiens, UniProt Q13555)
T14 construct: purchased DiscoveRx KINOMEscan
Method in brief: as §1

ACVR1B = biological target: T15, ACVR1B (Homo sapiens, UniProt P36896)
T15 construct: purchased DiscoveRx KINOMEscan
Method in brief: as §1

FAK = biological target: T16, FAK (Homo sapiens, UniProt Q05397)
T16 construct: purchased DiscoveRx KINOMEscan
Method in brief: as §1

IRAK3 = biological target: T17, IRAK3 (Homo sapiens, UniProt Q9Y616)
T17 construct: purchased DiscoveRx KINOMEscan
Method in brief: as §1

p38-delta = biological target: T18, p38-delta (Homo sapiens, UniProt O15264)
T18 construct: purchased DiscoveRx KINOMEscan
Method in brief: as §1

MAP4K3 = biological target: T19, MAP4K3 (Homo sapiens, UniProt Q8IVH8)
T19 construct: purchased DiscoveRx KINOMEscan
Method in brief: as §1

MKNK2 = biological target: T20, MKNK2 (Homo sapiens, UniProt Q9HBH9)
T20 construct: purchased DiscoveRx KINOMEscan
Method in brief: as §1

OSR1 = biological target: T21, OSR1 (Homo sapiens, UniProt O95747)
T21 construct: purchased DiscoveRx KINOMEscan
Method in brief: as §1

FRK = biological target: T22, FRK (Homo sapiens, UniProt P42685)
T22 construct: purchased DiscoveRx KINOMEscan
Method in brief: as §1

PAK4 = biological target: T23, PAK4 (Homo sapiens, UniProt O96013)
T23 construct: purchased DiscoveRx KINOMEscan
Method in brief: as §1

CDK2 = biological target: T24, CDK2 (Homo sapiens, UniProt P24941)
T24 construct: purchased DiscoveRx KINOMEscan
Method in brief: as §1

AKT1 = biological target: T25, AKT1 (Homo sapiens, UniProt P31749)
T25 construct: purchased DiscoveRx KINOMEscan
Method in brief: as §1

PLK4 = biological target: T26, PLK4 (Homo sapiens, UniProt O00444)
T26 construct: purchased DiscoveRx KINOMEscan
Method in brief: as §1

BMPR2 = biological target: T27, BMPR2 (Homo sapiens, UniProt Q13873)
T27 construct: purchased DiscoveRx KINOMEscan
Method in brief: as §1

ANKK1 = biological target: T28, ANKK1 (Homo sapiens, UniProt Q8NFD2)
T28 construct: purchased DiscoveRx KINOMEscan
Method in brief: as §1

YANK3 = biological target: T29, YANK3 (Homo sapiens, UniProt Q86UX6)
T29 construct: purchased DiscoveRx KINOMEscan
Method in brief: as §1

BRK = biological target: T30, BRK (Homo sapiens, UniProt Q13882)
T30 construct: purchased DiscoveRx KINOMEscan
Method in brief: as §1

p38-alpha = biological target: T31, p38-alpha (Homo sapiens, UniProt Q16539)
T31 construct: purchased DiscoveRx KINOMEscan
Method in brief: as §1

T15 sequence (P36896 24-505): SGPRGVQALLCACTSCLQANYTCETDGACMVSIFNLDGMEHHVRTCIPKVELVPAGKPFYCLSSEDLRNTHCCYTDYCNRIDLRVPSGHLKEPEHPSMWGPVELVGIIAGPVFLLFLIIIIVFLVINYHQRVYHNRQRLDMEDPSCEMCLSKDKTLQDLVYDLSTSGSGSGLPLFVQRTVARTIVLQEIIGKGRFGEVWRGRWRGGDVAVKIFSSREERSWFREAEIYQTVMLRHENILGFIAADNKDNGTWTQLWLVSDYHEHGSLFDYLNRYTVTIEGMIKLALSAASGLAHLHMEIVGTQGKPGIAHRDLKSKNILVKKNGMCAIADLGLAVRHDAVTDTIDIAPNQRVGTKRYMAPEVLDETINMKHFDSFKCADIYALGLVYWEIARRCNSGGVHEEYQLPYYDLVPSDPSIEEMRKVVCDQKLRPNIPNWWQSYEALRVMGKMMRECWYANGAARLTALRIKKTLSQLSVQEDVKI
T12 sequence (Q86UE8 whole entry): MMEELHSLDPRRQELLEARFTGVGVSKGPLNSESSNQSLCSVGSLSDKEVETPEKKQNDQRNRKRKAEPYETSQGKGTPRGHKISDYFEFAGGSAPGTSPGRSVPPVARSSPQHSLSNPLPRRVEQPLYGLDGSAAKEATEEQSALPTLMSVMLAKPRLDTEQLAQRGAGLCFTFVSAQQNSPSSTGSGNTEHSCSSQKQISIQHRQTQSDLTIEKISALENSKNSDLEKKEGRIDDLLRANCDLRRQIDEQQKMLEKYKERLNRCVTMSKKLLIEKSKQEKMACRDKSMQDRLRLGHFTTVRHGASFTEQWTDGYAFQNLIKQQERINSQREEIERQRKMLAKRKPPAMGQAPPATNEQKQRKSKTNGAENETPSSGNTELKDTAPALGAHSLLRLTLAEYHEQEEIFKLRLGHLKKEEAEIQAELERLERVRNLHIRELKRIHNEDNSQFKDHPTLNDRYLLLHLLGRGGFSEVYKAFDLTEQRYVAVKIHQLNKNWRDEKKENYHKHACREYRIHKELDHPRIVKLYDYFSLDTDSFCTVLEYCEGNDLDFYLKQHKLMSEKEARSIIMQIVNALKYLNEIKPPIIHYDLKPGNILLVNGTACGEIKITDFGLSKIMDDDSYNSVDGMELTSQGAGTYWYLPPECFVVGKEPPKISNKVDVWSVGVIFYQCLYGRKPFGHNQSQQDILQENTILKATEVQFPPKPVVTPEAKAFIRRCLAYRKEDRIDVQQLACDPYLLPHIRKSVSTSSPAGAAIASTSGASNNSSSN
T2 sequence (Q16816 whole entry): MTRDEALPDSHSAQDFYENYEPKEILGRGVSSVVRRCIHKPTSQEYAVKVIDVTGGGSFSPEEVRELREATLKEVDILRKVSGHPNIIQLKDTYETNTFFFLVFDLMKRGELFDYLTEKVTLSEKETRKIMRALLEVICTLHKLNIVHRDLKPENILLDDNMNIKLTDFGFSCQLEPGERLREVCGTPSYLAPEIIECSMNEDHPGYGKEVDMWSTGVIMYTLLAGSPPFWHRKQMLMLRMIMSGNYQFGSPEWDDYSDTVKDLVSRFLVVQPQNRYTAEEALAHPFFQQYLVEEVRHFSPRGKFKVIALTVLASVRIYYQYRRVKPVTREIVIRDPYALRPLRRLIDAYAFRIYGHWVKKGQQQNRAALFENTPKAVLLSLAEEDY
T21 sequence (O95747 whole entry): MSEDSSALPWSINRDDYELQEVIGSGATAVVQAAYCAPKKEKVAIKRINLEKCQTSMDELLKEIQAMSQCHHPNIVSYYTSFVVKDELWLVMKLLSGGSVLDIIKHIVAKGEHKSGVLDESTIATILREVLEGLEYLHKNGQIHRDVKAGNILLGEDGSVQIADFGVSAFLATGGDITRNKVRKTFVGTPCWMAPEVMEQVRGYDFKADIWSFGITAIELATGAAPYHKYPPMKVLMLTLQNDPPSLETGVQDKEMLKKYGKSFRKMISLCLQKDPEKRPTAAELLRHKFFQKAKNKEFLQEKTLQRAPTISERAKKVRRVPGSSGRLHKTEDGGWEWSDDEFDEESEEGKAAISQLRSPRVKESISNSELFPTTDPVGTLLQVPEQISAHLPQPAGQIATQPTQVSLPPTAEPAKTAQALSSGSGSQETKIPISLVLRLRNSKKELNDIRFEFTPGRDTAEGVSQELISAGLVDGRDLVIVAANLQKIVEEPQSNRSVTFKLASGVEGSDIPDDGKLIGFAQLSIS
T31 sequence (Q16539 whole entry): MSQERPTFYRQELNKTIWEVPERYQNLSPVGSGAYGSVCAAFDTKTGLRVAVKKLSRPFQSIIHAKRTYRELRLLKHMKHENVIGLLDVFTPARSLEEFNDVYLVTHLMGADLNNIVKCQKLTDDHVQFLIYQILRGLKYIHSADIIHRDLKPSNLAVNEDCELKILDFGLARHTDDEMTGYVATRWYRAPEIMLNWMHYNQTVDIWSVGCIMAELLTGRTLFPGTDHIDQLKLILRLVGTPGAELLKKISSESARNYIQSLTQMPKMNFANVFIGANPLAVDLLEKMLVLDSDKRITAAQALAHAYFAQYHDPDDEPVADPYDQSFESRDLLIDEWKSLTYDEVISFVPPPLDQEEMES
T28 sequence (Q8NFD2 whole entry): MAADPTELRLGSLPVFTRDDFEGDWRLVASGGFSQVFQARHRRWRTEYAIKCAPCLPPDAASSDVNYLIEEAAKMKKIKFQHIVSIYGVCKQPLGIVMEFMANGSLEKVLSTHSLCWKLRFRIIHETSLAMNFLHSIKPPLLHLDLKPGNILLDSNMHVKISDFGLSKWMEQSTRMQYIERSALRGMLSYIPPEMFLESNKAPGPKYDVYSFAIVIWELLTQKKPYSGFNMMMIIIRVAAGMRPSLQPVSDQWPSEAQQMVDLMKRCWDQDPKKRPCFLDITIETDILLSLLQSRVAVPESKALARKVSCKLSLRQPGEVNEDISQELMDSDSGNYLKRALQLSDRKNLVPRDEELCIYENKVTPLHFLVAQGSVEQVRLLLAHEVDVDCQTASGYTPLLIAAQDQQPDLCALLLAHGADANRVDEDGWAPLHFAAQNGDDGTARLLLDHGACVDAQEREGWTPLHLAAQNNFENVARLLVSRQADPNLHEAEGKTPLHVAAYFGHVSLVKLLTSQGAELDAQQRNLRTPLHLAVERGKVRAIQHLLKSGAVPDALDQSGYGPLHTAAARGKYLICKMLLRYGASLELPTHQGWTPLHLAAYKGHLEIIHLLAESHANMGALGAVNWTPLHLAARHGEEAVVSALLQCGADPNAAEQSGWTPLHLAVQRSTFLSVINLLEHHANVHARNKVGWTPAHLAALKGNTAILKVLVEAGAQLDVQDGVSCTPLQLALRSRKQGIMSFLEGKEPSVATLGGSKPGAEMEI
T16 sequence (Q05397 whole entry): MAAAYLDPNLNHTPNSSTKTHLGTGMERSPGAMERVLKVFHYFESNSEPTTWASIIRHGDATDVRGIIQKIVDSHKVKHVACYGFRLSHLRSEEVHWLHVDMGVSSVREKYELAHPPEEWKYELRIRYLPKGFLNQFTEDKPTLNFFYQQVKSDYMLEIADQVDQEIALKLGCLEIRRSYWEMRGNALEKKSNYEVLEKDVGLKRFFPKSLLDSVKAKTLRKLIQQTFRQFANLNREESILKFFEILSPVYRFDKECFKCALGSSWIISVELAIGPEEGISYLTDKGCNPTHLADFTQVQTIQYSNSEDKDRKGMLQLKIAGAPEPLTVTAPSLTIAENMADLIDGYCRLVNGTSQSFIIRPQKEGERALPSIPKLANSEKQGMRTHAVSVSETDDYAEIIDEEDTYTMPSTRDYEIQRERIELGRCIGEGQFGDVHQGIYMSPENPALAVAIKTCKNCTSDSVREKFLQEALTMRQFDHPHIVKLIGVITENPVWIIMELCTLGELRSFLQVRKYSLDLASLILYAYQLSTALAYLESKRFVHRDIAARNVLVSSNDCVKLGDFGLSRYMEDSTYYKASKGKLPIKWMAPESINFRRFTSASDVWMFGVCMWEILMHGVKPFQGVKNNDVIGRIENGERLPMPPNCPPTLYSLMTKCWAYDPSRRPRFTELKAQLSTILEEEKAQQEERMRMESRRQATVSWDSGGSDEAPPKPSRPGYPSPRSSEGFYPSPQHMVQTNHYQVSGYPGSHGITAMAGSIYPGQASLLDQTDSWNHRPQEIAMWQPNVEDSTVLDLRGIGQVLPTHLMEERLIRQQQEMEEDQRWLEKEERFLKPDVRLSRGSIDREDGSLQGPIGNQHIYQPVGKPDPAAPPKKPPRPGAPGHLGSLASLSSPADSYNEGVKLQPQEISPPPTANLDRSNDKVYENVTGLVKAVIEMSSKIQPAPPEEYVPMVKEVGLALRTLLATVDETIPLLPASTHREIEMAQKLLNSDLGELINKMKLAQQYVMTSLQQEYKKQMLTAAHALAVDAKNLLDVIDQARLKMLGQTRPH
T5 sequence (P53350 whole entry): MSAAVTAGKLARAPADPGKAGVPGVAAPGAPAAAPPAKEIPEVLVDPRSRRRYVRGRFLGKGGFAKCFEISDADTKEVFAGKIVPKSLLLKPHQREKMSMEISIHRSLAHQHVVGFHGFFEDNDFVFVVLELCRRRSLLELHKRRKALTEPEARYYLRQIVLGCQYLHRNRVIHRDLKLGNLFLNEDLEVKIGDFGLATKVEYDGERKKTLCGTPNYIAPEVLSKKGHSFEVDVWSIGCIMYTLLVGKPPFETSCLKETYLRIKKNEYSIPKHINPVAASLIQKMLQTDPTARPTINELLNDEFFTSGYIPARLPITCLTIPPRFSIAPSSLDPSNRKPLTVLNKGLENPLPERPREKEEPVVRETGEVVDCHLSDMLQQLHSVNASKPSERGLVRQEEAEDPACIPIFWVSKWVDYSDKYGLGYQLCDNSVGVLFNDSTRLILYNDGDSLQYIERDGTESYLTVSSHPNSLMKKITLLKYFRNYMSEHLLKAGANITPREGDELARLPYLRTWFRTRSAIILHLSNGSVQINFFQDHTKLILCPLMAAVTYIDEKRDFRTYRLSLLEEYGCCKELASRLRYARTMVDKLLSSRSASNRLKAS

With `Cc1ccc(C2=Nc3cccnc3S(=O)(=O)c3ccccc32)cc1` [TBPT, 6-(p-tolyl)benzo[f] pyrido[2,3-b][1,4] thiazepine 11,11-dioxide] the remaining binding at 5 µM (SgK110; 5 μM) was 100%, the remaining binding at 10 µM (SgK110; 10 μM) was 100% and the remaining binding at 5 µM (PHKG1; 5 μM) was 100%. The remaining binding at 10 µM (PHKG1; 10 μM) was 94%, the remaining binding at 5 µM (DCAMKL3; 5 μM) was 100% and the remaining binding at 10 µM (DCAMKL3; 10 μM) was 79%. The remaining binding at 5 µM (PRKD2; 5 μM) was 100%, the remaining binding at 10 µM (PRKD2; 10 μM) was 100% and the remaining binding at 5 µM (PLK1; 5 μM) was 76%. The remaining binding at 10 µM (PLK1; 10 μM) was 80%, the remaining binding at 5 µM (NEK2; 5 μM) was 92% and the remaining binding at 10 µM (NEK2; 10 μM) was 81%. The remaining binding at 5 µM (NEK4; 5 μM) was 65%, the remaining binding at 10 µM (NEK4; 10 μM) was 99% and the remaining binding at 5 µM (ERK1; 5 μM) was 100%. The remaining binding at 10 µM (ERK1; 10 μM) was 100%, the remaining binding at 5 µM ([1]; 5 μM) was 100% and the remaining binding at 10 µM ([1]; 10 μM) was 100%. It also gave a remaining binding at 5 µM (MAST1; 5 μM) of 45%, a remaining binding at 10 µM (MAST1; 10 μM) of 87% and a remaining binding at 5 µM (CAMKK2; 5 μM) of 97%. The remaining binding at 10 µM (CAMKK2; 10 μM) was 83%, the remaining binding at 5 µM (TLK2; 5 μM) was 100% and the remaining binding at 10 µM (TLK2; 10 μM) was 100%. For the same molecule, the remaining binding at 5 µM (TNNI3K; 5 μM) was 100%, the remaining binding at 10 µM (TNNI3K; 10 μM) was 89% and the remaining binding at 5 µM (CAMK2G; 5 μM) was 100%. It also gave a remaining binding at 10 µM (CAMK2G; 10 μM) of 96%, a remaining binding at 5 µM (ACVR1B; 5 μM) of 98% and a remaining binding at 10 µM (ACVR1B; 10 μM) of 91%. The remaining binding at 5 µM (FAK; 5 μM) was 92%, the remaining binding at 10 µM (FAK; 10 μM) was 92% and the remaining binding at 5 µM (IRAK3; 5 μM) was 92%. The remaining binding at 10 µM (IRAK3; 10 μM) was 82%, the remaining binding at 5 µM (p38-delta; 5 μM) was 75% and the remaining binding at 10 µM (p38-delta; 10 μM) was 65%. It also gave a remaining binding at 5 µM (MAP4K3; 5 μM) of 75%, a remaining binding at 10 µM (MAP4K3; 10 μM) of 91% and a remaining binding at 5 µM (MKNK2; 5 μM) of 100%. It also gave a remaining binding at 10 µM (MKNK2; 10 μM) of 96%, a remaining binding at 5 µM (OSR1; 5 μM) of 100% and a remaining binding at 10 µM (OSR1; 10 μM) of 87%. For the same molecule, the remaining binding at 5 µM (FRK; 5 μM) was 100%, the remaining binding at 10 µM (FRK; 10 μM) was 99% and the remaining binding at 5 µM (PAK4; 5 μM) was 100%. The remaining binding at 10 µM (PAK4; 10 μM) was 100%, the remaining binding at 5 µM (CDK2; 5 μM) was 98% and the remaining binding at 10 µM (CDK2; 10 μM) was 93%. The remaining binding at 5 µM (AKT1; 5 μM) was 84%, the remaining binding at 10 µM (AKT1; 10 μM) was 100% and the remaining binding at 5 µM (PLK4; 5 μM) was 100%. It also gave a remaining binding at 10 µM (PLK4; 10 μM) of 92%, a remaining binding at 5 µM (BMPR2; 5 μM) of 85% and a remaining binding at 10 µM (BMPR2; 10 μM) of 100%. For the same molecule, the remaining binding at 5 µM (ANKK1; 5 μM) was 91%, the remaining binding at 10 µM (ANKK1; 10 μM) was 72% and the remaining binding at 5 µM (YANK3; 5 μM) was 88%. It also gave a remaining binding at 10 µM (YANK3; 10 μM) of 96%, a remaining binding at 5 µM (BRK; 5 μM) of 100% and a remaining binding at 10 µM (BRK; 10 μM) of 98%. It also gave a remaining binding at 5 µM (p38-alpha; 5 μM) of 63% and a remaining binding at 10 µM (p38-alpha; 10 μM) of 100%.
